Reference: patent US20250339443A1, “METHOD FOR TREATING OR PREVENTING CALCIUM RELEASE-ACTIVATED CALCIUM CHANNEL OR DISCOIDIN DOMAIN RECEPTOR 2 RELATED DISORDERS OR CONDITIONS” (LumiSTAR Biotechnology, Inc., priority 2023, published 2025)

Experiments:
CRAC channel = CRAC channel (Homo sapiens, UniProt Q96D31); assay: CRAC channel activity / SOCE in MRC5; format: cell-based; parameters: endogenous in cells; details: MRC5, 10 μM pretreatment 45 min
Protocol: Cells were co-treated with various compounds (10 μM) and TGF-β1 for 24 hours. Following this, cell lysates were harvested, and the protein expression was assessed by Western blot analysis. FIG. 3D depicts the examination of TGF-β1-induced fibronectin deposition and α-SMA expression in HCF treated with 10 μM of DMSO, BTP2, WRG-28, or Av through immunofluorescence staining. The images were captured using a confocal microscope, the Olympus FV-1000. FIG. 3E, FIG. 3F, and FIG. 3G illustrate the assessment of CRAC channel activity in HCF, MRC5, and rat HSC-T6. These cells were pretreated with 10 μM of BTP2, WRG-28, or Av for 45 min. The evaluation included measuring the second peak of each calcium wave and the rate of entry. Each bar within the figure represents the mean value derived from 77 to 91 cells for HCF, 31 to 49 cells for MRC5, and 43 to 94 cells for HSC-T6. In all the graphs, *, **, and *** denote p-values of <0.05, 0.01, and 0.001, respectively.
Cells cultured on a glass-bottom 96 well plate for 48 hours were treated with different compounds (10 μM) and Fura 2-AM (1 μM) simultaneously in a solution containing 145 mM NaCl, 2.8 mM KCl, 2 mM CaCl2, 2 mM MgCl2, 10 mM D-glucose, 10 mM HEPES, pH 7.4 for 40 minutes in the dark. […] All the images were analyzed by using IGOR Pro software. […]

[1] = tested on: BLM-induced pulmonary fibrosis; assay: Bleomycin-induced lung fibrosis mouse model; format: in vivo; details: 14 days, Nintedanib 60 mg/kg/day, WRG-28 5 mg/kg/day, Av 5 mg/kg/day
From the text: A Bleomycin (BLM)-induced lung fibrosis mouse model was used, and the timelines of operation and drug delivery are depicted in FIG. 11A. […] The hydroxyproline content, serving as a marker of collagen deposition, was extracted from the right lobe and analyzed; the results are shown in FIG. 11C. FIG. 11D depicts histological analysis derived from the left lobe, quantifying the fibrotic area through staining with Masson's Trichrome and Picrosirius red, respectively.
8-to-10-week-old male WT (C57BL/6) mice received intratracheal instillation of bleomycin (bleocin; Nippon Kayaku) at the dose of 3 mg/kg diluted in PBS or PBS only (sham). To study fibrosis, lung samples were collected on day 21 for further analysis.
Lung function was assessed using the flexi Vent system (Scireq, Montreal, QC, Canada). Mice were tracheostomized and ventilated at a rate of 150 breaths/min, tidal volume of 10 ml/kg, and a positive end-expiratory pressure (PEEP) of 2-3 cmH2O. A deep inflation perturbation was used to estimate the inspiratory capacity (IC). Pressure-Volume loops were generated by constant increasing pressure, followed by regular decreasing pressure. Other lung function parameters like resistance, compliance, and elastance were measured by using SnapShot-150.
Levels of hydroxyproline in lung tissues were measured using the Hydroxyproline Colorimetric Assay kit (BioVision, Milpitas, CA, USA). Briefly, 10 mg of frozen right middle lobes homogenized in 100 μL of hydrochloric acid (HCl, 12 N), and hydrolyzed at 120° C. for 3 h. Then, 10 μL of individual samples were used to quantify the absorbance at 560 nm. Hydroxyproline content was presented in μg per lobe.
Mouse left lungs were fixed overnight in 4% paraformaldehyde (PFA), embedded in paraffin, and sectioned in 5 μm thickness for picrosirius red (Abcam, Cambridge, UK) and Masson's trichrome staining (Sigma Aldrich, MO, USA). Measurement of fibrotic area was quantified using ImageJ software (NIH, http://rsbweb.nih.gov/ij/).
The efficacy of WRG-28 and Av in treating pulmonary fibrosis was examined in vivo using a BLM-induced pulmonary fibrosis mouse model for evaluation. 50 μL of Bleomycin (BLM, 3 mg/kg) or PBS were introduced by intratracheal instillation on day 0 to induce fibrosis or serve as the control group, respectively. This was followed by the administration of various compounds for 14 days (Nintedanib: 60 mg/kg/day, WRG-28:5 mg/kg/day, Av: 5 mg/kg/day). Lung function evaluation was conducted on day 21 (FIG. 11A). Nintedanib, an FDA-approved drug for idiopathic pulmonary fibrosis (IPF) treatment, was used as the positive control. The results of the lung function evaluation are depicted in FIG. 11B. […] The degree of these changes can be reversed through treatment with Nintedanib, WRG-28 or Av. […] Histological analysis was conducted through staining techniques to quantify the fibrotic area.

Chain of CRAC channel (Q96D31 whole entry): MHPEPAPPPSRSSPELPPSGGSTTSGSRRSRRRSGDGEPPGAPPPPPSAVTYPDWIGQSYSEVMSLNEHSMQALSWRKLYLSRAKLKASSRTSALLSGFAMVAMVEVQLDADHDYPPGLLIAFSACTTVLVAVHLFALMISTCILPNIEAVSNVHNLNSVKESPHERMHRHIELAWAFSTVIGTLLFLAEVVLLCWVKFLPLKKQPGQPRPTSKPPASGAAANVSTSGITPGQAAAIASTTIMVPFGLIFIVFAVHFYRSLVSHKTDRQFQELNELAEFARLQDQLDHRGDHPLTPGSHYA

Question: With `CCNS(=O)(=O)c1ccc(COc2ccc3nc4ccc(=O)cc-4oc3c2)cc1` [WRG-28] as the molecule, how does the SOCE (CRAC channel) read?
Answer: notably reduced

Question: And the “BLM-induced changes in lung function (capacity, compliance, resistance, elastance)” value ([1]; day 21)?
Answer: reversed

Question: What about the “fibrotic area (Masson's trichrome and Picrosirius Red staining)” value ([1]; left lobe) of the same molecule?
Answer: effectively reduces

Question: What about the “hydroxyproline content (degree of fibrosis)” value ([1]; right lobe) of the same molecule?
Answer: inhibits the progression of fibrosis
